{"source": "patent US20120329117A1", "about": "“CONTROL OF CONTAMINANT MICROORGANISMS IN FERMENTATION PROCESSES WITH SYNERGISTIC FORMULATIONS CONTAINING STABILIZED CHLORINE DIOXIDE AND PEROXIDE COMPOUND” (E.I. DU PONT DE NEMOURS AND COMPANY, priority 2010, published 2012)", "system": "L. brevis", "test": "Reduction of lactic acid bacteria in inoculated corn mash (plate count on MRS agar)", "assay_type": "cell-based, Lactobacillus brevis", "conditions": "corn mash inoculated with L. brevis", "protocol": "In this example, corn mash was obtained from a commercial ethanol plant immediately after the liquefaction step. The mash was cooled to room temperature and then inoculated with L. brevis cultures prepared as was described in Example 1. 50 ml portions of the inoculated corn mash were treated with SCD, HP and a combination of both as follows:\nFollowing treatment, the samples were incubated for 2 hours in a shaking incubator. Surviving bacteria in each sample was enumerated by plating serial dilutions of each on MRS agar plates (available from Difco Laboratories, Inc., Sparks, Md.) and further incubating the plates for 48 hours at 32° C."}
{"smiles": "OO", "note": "[HP, hydrogen peroxide]", "values": [{"measurement": "Viable cells after 2 hours", "setting": "50 ppm HP", "value": 7.48, "unit": "Log CFU/g"}, {"measurement": "Viable cells after 2 hours", "setting": "100 ppm HP", "value": 5.97, "unit": "Log CFU/g"}]}
